From PMC5532645, “Design, Synthesis, and Antifouling Activity of Glucosamine-Based Isocyanides” (Marine Drugs, 2017)
Values after ≈ are worked out from the molar mass of the structure shown. Where two headings read alike, the source gives them in different places.

Assays:
[1] = tested on: cypris larvae of the barnacle Amphibalanus amphitrite; details: cited from earlier work
[2] = Antifouling assay: settlement and mortality of barnacle cyprids after 48 h; assay type: in vivo; details: cypris larvae, 48 h incubation, read-out: LC50 (toxicity)
Description: (§1) Adult barnacles (Amphibalanus amphitrite) procured from oyster farms at Lake Hamana and a pier at Shimizu bay, Shizuoka, were kept in an aquarium at 20 °C and fed on Artemia salina nauplii. Broods were released as I–II stage nauplii upon immersion in seawater after drying overnight. The nauplii thus obtained were cultured in filtered natural seawater (salinity 28) containing penicillin G (20 μg/mL) and streptomycin sulfate (30 μg/mL) and were fed on the diatom Chaetoceros gracilis at concentrations of 40 × 10^4 cells/mL. […] The cyprids were collected and stored at 4 °C until use (0 days old).
(§2) The test compounds were dissolved in ethanol and aliquots of the solution were transferred to wells of a 24-well polystyrene culture plate and air-dried. Four wells were used for each concentration. To each well, filtered seawater (2.0 mL, salinity 28) and six 2-day-old cyprids were added. The plates were kept in the dark at 25 °C for 48 h. […] Three or four trials were done for each concentration. Probit analysis was used to calculate the EC50 values.

[3] = tested on: cypris larvae of the barnacle Amphibalanus amphitrite; assay: as above; assay type: in vivo; details: for EC50: Amphibalanus amphitrite, 48 h, read-out: EC50 (antifouling activity), cypris larvae, 48 h incubation, probit analysis; for toxicity / mortality of cypris larvae: at a concentration of 10 μg/mL
Description: as §1, §2

[4] = synthetic sample of 1 and its synthetic intermediates
[5] = Amphibalanus amphitrite (barnacle, in vivo, other: immersion in seawater holding the compound)

SMILES	LC50 at 48 h [2, 5] [µg/mL]	EC50 [3] [µg/mL]	also measured
[C-]#[N+][C@@]1(C)CC[C@H](C(C)C)[C@H]2C=C(C)CC[C@@H]21 [Compound 1, 10-isocyano-4-cadinene]	–	–	EC50 (antifouling activity) ([1]; natural compound obtained from nudibranchs): 0.14 µg/mL (≈ 0.605 µM); LC50 (50% lethal concentration) ([1]; natural compound): > 10 µg/mL; EC50 (antifouling activity) [1, 4]: 0.06 µg/mL (≈ 0.259 µM); LC50 [1, 4]: > 10 µg/mL
CC1=C[C@H]2[C@H](CC1)[C@@H](O)CC[C@@H]2C(C)C [Compound 2]	–	–	EC50 (antifouling activity) [1, 4]: 0.31 µg/mL (≈ 1.49 µM); LC50 [1, 4]: > 10 µg/mL
[C-]#[N+][C@]1(C)CC[C@@H](/C(C)=C/C=C/C(C)C)CC1 [Compound 4, 3-isocyanotheonellin]	–	–	EC50 (antifouling activity) ([1]; previously reported): 0.19 µg/mL (≈ 0.821 µM); LC50 ([1]; previously reported): > 10 µg/mL
[C-]#[N+][C@H]1[C@H](OC(C)=O)O[C@H](COC(C)=O)[C@@H](OC(C)=O)[C@@H]1OC(C)=O [Compound 6a]	> 10	> 5	toxicity / mortality of cypris larvae [3]: lethal larva was not observed
[C-]#[N+][C@H]1[C@H](OC(=O)CCCCCCCCCCCCCCC)O[C@H](COC(=O)CCCCCCCCCCCCCCC)[C@@H](OC(=O)CCCCCCCCCCCCCCC)[C@@H]1OC(=O)CCCCCCCCCCCCCCC [Compound 6b]	> 10	> 5	toxicity / mortality of cypris larvae [3]: lethal larva was not observed
[C-]#[N+][C@H]1[C@H](Oc2ccccc2)O[C@H](COC(C)=O)[C@@H](OC(C)=O)[C@@H]1OC(C)=O [Compound 6c]	> 10	0.71 (≈ 1.81 µM)	–
[C-]#[N+][C@H]1[C@H](OCc2ccccc2)O[C@H](COC(C)=O)[C@@H](OC(C)=O)[C@@H]1OC(C)=O [Compound 6d]	> 10	0.7 (≈ 1.73 µM)	–
[C-]#[N+][C@H]1[C@H](OCC=C)O[C@H](COC(C)=O)[C@@H](OC(C)=O)[C@@H]1OC(C)=O [Compound 6e]	> 10	0.37 (≈ 1.04 µM)	–
[C-]#[N+][C@H]1[C@H](OC(C)C)O[C@H](COC(C)=O)[C@@H](OC(C)=O)[C@@H]1OC(C)=O [Compound 6f]	> 10	0.23 (≈ 0.644 µM)	–
[C-]#[N+][C@H]1[C@H](OCC(F)(F)F)O[C@H](COC(C)=O)[C@@H](OC(C)=O)[C@@H]1OC(C)=O [Compound 6g]	> 10	0.36 (≈ 0.906 µM)	–
[C-]#[N+][C@H]1[C@H](OC(C)C)O[C@H](COC(=O)CCCCCCC)[C@@H](OC(=O)CCCCCCC)[C@@H]1OC(=O)CCCCCCC [Compound 6h]	> 10	0.79 (≈ 1.3 µM)	–
[C-]#[N+][C@H]1[C@H](OC(C)C)O[C@H](COC(=O)CCCCCCCCCCCCCCC)[C@@H](OC(=O)CCCCCCCCCCCCCCC)[C@@H]1OC(=O)CCCCCCCCCCCCCCC [Compound 6i]	> 10	0.31 (≈ 0.328 µM)	–
[C-]#[N+][C@H]1[C@H](OC(C)C)O[C@H](COC(=O)c2ccccc2)[C@@H](OC(=O)c2ccccc2)[C@@H]1OC(=O)c1ccccc1 [Compound 6j]	> 10	0.81 (≈ 1.49 µM)	–
[C-]#[N+][C@H]1[C@H](OC(C)C)O[C@H](CO[Si](C)(C)C(C)(C)C)[C@@H](O[Si](C)(C)C(C)(C)C)[C@@H]1O[Si](C)(C)C(C)(C)C [Compound 6k]	–	0.25 (≈ 0.436 µM)	LC50 at 48 h ([2]; Amphibalanus amphitrite (barnacle, in vivo)): > 10 µg/mL
O=S(=O)([O-])[O-].[Cu+2] [CuSO4]	–	–	EC50 (antifouling activity) ([1]; CuSO4 used as a fouling inhibitor): 0.27 µg/mL
